In patent publication US20260020569A1, “PESTICIDALLY ACTIVE THIOSEMICARBAZONE COMPOUNDS” (BASF SE, priority 2021, published 2026):

Assays:
Format in all cases: in vivo
[1] = system: Orchid thrips (Dichromothrips corbetti); assay: Action on orchid thrips (Dichromothrips corbetti), floral-immersion technique; conditions: adult thrips, 72 hours after treatment, read-out: mortality in comparison with untreated controls
Experimental: Example B2: Action on Orchid Thrips (Dichromothrips corbetti)
Dichromothrips corbetti adults used for bioassay were obtained from a colony maintained continuously under laboratory conditions. For testing purposes, the test compound is diluted in a 1:1 mixture of acetone:water (vol:vol), plus Kinetic® HV at a rate of 0.01% v/v.
Thrips potency of each compound was evaluated by using a floral-immersion technique. All petals of individual, intact orchid flowers were dipped into treatment solution and allowed to dry in Petri dishes. Treated petals were placed into individual re-sealable plastic along with about 20 adult thrips. All test arenas were held under continuous light and a temperature of about 28° C. for duration of the assay. After 3 days, the numbers of live thrips were counted on each petal. The percent mortality was recorded 72 hours after treatment.

[2] = system: boll weevil (Anthonomus grandis); assay: Action on boll weevil (Anthonomus grandis), eggs on insect diet in microtiter plates; conditions: 120 h, egg and larval mortality after 5 days, read-out: mortality in comparison with untreated controls
Experimental: Example B3: Action on Boll Weevil (Anthonomus grandis)
For evaluating control of boll weevil (Anthonomus grandis) the test unit consisted of 96-well-microtiter plates containing an insect diet and 5-10 A. grandis eggs.
The compounds were formulated using a solution containing 75% (v/v) water and 25% (v/v) DMSO. Different concentrations of formulated compounds were sprayed onto the insect diet at 5 μl, using a custom built micro atomizer, at two replications.
After application, microtiter plates were incubated at about 25+1° C. and about 75+5% relative humidity for 5 days. Egg and larval mortality were then visually assessed.

[3] = system: tobacco budworm (Heliothis virescens); assay: Action on tobacco budworm (Heliothis virescens), eggs on insect diet in microtiter plates; conditions: 120 h, egg and larval mortality after 5 days, read-out: mortality in comparison with untreated controls
Experimental: Example B5: Action on Tobacco Budworm (Heliothis virescens)
For evaluating control of tobacco budworm (Heliothis virescens) the test unit consisted of 96-well-microtiter plates containing an insect diet and 15-25 H. virescens eggs.
The compounds were formulated using a solution containing 75% v/v water and 25% v/v DMSO. Different concentrations of formulated compounds were sprayed onto the insect diet at 10 μl, using a custom-built micro atomizer, at two replications.
After application, microtiter plates were incubated at about 28+1° C. and about 80+5% relative humidity for 5 days. Egg and larval mortality were then visually assessed.

[4] = system: Diamond back moth (Plutella xylostella); assay: Action on diamond back moth (Plutella xylostella), cabbage leaf dip; conditions: foliar, 3rd instar larvae on cabbage leaves, 72 hours after treatment, read-out: mortality in comparison with untreated controls
Experimental: Example B6: Action on Diamond Back Moth (Plutella xylostella)
The active compound is dissolved at the desired concentration in a mixture of 1:1 (v/v) distilled water:acetone. Surfactant (Kinetic® HV) is added at a rate of 0.01% (v/v). The test solution is prepared at the day of use.
Leaves of cabbage were dipped in test solution and air-dried. Treated leaves were placed in petri dishes lined with moist filter paper and inoculated with ten 3rd instar larvae. Mortality was recorded 72 hours after treatment. Feeding damages were also recorded using a scale of 0-100%.

[5] = system: Southern armyworm (Spodoptera eridania), 2nd instar larvae; assay: Action on southern armyworm (Spodoptera eridania), 2nd instar larvae on sprayed lima bean plants; conditions: 96 h, 2nd instar larvae on lima bean plants, 4 days after treatment, read-out: mortality in comparison with untreated controls
Experimental: Example B7: Action on Southern Armyworm (Spodoptera eridania), 2nd Instar Larvae
The active compounds were formulated by a Tecan liquid handler in 100% cyclohexanone as a 10,000 ppm solution supplied in tubes. The 10,000 ppm solution was serially diluted in 100% cyclohexanone to make interim solutions. These served as stock solutions for which final dilutions were made by the Tecan in 50% acetone:50% water (v/v) into 10 or 20 ml glass vials. A nonionic surfactant (Kinetic®) was included in the solution at a volume of 0.01% (v/v). The vials were then inserted into an automated electrostatic sprayer equipped with an atomizing nozzle for application to plants/insects.
Lima bean plants (variety Sieva) were grown 2 plants to a pot and selected for treatment at the 1st true leaf stage. Test solutions were sprayed onto the foliage by an automated electrostatic plant sprayer equipped with an atomizing spray nozzle. The plants were dried in the sprayer fume hood and then removed from the sprayer. Each pot was placed into perforated plastic bags with a zip closure. About 10 to 11 armyworm larvae were placed into the bag and the bags zipped closed. Test plants were maintained in a growth room at about 25° C. and about 20-40% relative humidity for 4 days, avoiding direct exposure to fluorescent light (24 hour photoperiod) to prevent trapping of heat inside the bags. Mortality and reduced feeding were assessed 4 days after treatment, compared to untreated control plants.

[6] = system: yellow fever mosquito (Aedes aegypti); assay: whole plant or invertebrate; conditions: 48 h, larval mortality visually assessed after 2 days, read-out: mortality in comparison with untreated controls
Experimental: Example B1: Action on Yellow Fever Mosquito (Aedes aegypti)
For evaluating control of yellow fever mosquito (Aedes aegypti) the test unit consisted of 96-well-microtiter plates containing 200 μl of tap water per well and 5-15 freshly hatched A. aegypti larvae.
The active compounds or mixtures were formulated using a solution containing 75% (v/v) water and 25% (v/v) DMSO. Different concentrations of formulated compounds or mixtures were sprayed onto the insect diet at 2.5 μl, using a custom built micro atomizer, at two replications. For experimental mixtures in these tests identical volumes of both mixing partners at the desired concentrations respectively, were mixed together.
After application, microtiter plates were incubated at 28±1° C., 80±5% RH for 2 days. Larval mortality was then visually assessed.

[7] = system: Silverleaf whitefly (Bemisia argentifolii) (adults); assay: Action on silverleaf whitefly (Bemisia argentifolii) adults on sprayed cotton plants; conditions: 72 h, 3 days after treatment, read-out: mortality in comparison with untreated controls
Experimental: Example B4: Action on Silverleaf Whitefly (Bemisia argentifolii) (Adults)
The active compounds were formulated by a Tecan liquid handler in 100% cyclohexanone as a 10,000 ppm solution supplied in tubes. The 10,000 ppm solution was serially diluted in 100% cyclohexanone to make interim solutions. These served as stock solutions for which final dilutions were made by the Tecan in 50% acetone:50% water (v/v) into 5 or 10 ml glass vials. A non-ionic surfactant (Kinetic®) was included in the solution at a volume of 0.01% (v/v). The vials were then inserted into an automated electrostatic sprayer equipped with an atomizing nozzle for application to plants/insects.
Cotton plants at the cotyledon stage (one plant per pot) were sprayed by an automated electrostatic plant sprayer equipped with an atomizing spray nozzle. The plants were dried in the sprayer fume hood and then removed from the sprayer. Each pot was placed into a plastic cup and about 10 to 12 whitefly adults (approximately 3-5 days old) were introduced. The insects were collected using an aspirator and a nontoxic Tygon® tubing connected to a barrier pipette tip. The tip, containing the collected insects, was then gently inserted into the soil containing the treated plant, allowing insects to crawl out of the tip to reach the foliage for feeding. Cups were covered with a reusable screened lid. Test plants were maintained in a growth room at about 25° C. and about 20-40% relative humidity for 3 days, avoiding direct exposure to fluorescent light (24 hour photoperiod) to prevent trapping of heat inside the cup. Mortality was assessed 3 days after treatment, compared to untreated control plants.

## Cc1ccc(C(C)C)c(N/C(=N/N=C/c2ccc(-n3cc(NC(=O)c4ccc(OC(F)(F)F)cc4)c(C)n3)cc2)SCOC(=O)N2CCOCC2)c1 [Compound C-10, [(Z)—N-(2-isopropyl-5-methyl-phenyl)-N′-[(E)-[4-[3-methyl-4-[[4-(trifluoromethoxy)benzoyl]amino]pyrazol-1-yl]phenyl]methyleneamino]carbamimidoyl]sulfanylmethyl morpholine-4-carboxylate]
[1]
  mortality at 500 ppm: ≥ 75%
[2]
  mortality at 800 ppm: ≥ 75%
[3]
  mortality at 800 ppm: ≥ 75%
[4]
  mortality at 500 ppm: ≥ 75%
[5]
  mortality at 300 ppm: ≥ 75%

## Cc1ccc(C(C)C)c(N/C(=N/N=C/c2ccc(-n3cc(NC(=O)c4ccc(OC(F)(F)F)cc4)c(C)n3)cc2)SCOC(=O)C(C)C)c1 [Compound C-6, [(Z)—N-(2-isopropyl-5-methyl-phenyl)-N′-[(E)-[4-[3-methyl-4-[[4 (trifluoromethoxy)benzoyl]amino]pyrazol-1-yl]phenyl]methyleneamino]carbamimidoyl]sulfanylmethyl 2-methylpropanoate]
[6]
  mortality at 800 ppm: ≥ 50%
[1]
  mortality at 500 ppm: ≥ 75%
[2]
  mortality at 800 ppm: ≥ 75%
[3]
  mortality at 800 ppm: ≥ 75%
[4]
  mortality at 500 ppm: ≥ 75%
[5]
  mortality at 300 ppm: ≥ 75%

## COCCOCCOCCOCCOC(=O)OCS/C(=N\N=C\c1ccc(-n2cc(NC(=O)c3ccc(OC(F)(F)F)cc3)c(C)n2)cc1C)Nc1cc(C)ccc1C(C)C [Compound C-15, [(Z)—N-(2-isopropyl-5-methyl-phenyl)-N′-[(E)-[2-methyl-4-[3-methyl-4-[[4-(trifluoromethoxy)benzoyl]amino]pyrazol-1-yl]phenyl]methyleneamino]carbamimidoyl]sulfanylmethyl 2-[2-[2-(2-methoxyethoxy)ethoxy]ethoxy]ethyl carbonate]
[6]
  mortality at 800 ppm: ≥ 50%
[1]
  mortality at 500 ppm: ≥ 75%
[2]
  mortality at 800 ppm: ≥ 75%
[7]
  mortality at 300 ppm: ≥ 75%
[3]
  mortality at 800 ppm: ≥ 75%
[4]
  mortality at 500 ppm: ≥ 75%
[5]
  mortality at 300 ppm: ≥ 75%

## Cc1ccc(C(C)C)c(N/C(=N/N=C/c2ccc(-n3cc(NC(=O)c4ccc(OC(F)(F)F)cc4)c(C)n3)cc2C)SCOC(=O)C2CC2)c1 [Compound C-22, [(Z)—N-(2-isopropyl-5-methyl-phenyl)-N′-[(E)-[2-methyl-4-[3-methyl-4-[[4-(trifluoromethoxy)benzoyl]amino]pyrazol-1-yl]phenyl]methyleneamino]carbamimidoyl]sulfanylmethyl cyclopropanecarboxylate]
[6]
  mortality at 800 ppm: ≥ 50%
[1]
  mortality at 500 ppm: ≥ 75%
[2]
  mortality at 800 ppm: ≥ 75%
[3]
  mortality at 800 ppm: ≥ 75%
[4]
  mortality at 500 ppm: ≥ 75%
[5]
  mortality at 300 ppm: ≥ 75%

## COCCOCCOCCOC(=O)OCS/C(=N\N=C\c1ccc(-n2cc(NC(=O)c3ccc(OC(F)(F)F)cc3)c(C)n2)cc1)Nc1cc(C)ccc1C(C)C [Compound C-5, [(Z)—N-(2-isopropyl-5-methyl-phenyl)-N′-[(E)-[4-[3-methyl-4-[[4-(trifluoromethoxy)benzoyl]amino]pyrazol-1-yl]phenyl]methyleneamino]carbamimidoyl]sulfanylmethyl 2-[2-(2-methoxyethoxy)ethoxy]ethyl carbonate]
[6]
  mortality at 800 ppm: ≥ 50%
[1]
  mortality at 500 ppm: ≥ 75%
[2]
  mortality at 800 ppm: ≥ 75%
[7]
  mortality at 300 ppm: ≥ 75%
[3]
  mortality at 800 ppm: ≥ 75%
[4]
  mortality at 500 ppm: ≥ 75%
[5]
  mortality at 300 ppm: ≥ 75%

## COc1ccc(/C=C/C(=O)OCS/C(=N\N=C\c2ccc(-n3cc(NC(=O)c4ccc(OC(F)(F)F)cc4)c(C)n3)cc2C)Nc2cc(C)ccc2C(C)C)cc1 [Compound C-23, [(Z)—N-(2-isopropyl-5-methyl-phenyl)-N′-[(E)-[2-methyl-4-[3-methyl-4-[[4-(trifluoromethoxy)benzoyl]amino]pyrazol-1-yl]phenyl]methyleneamino]carbamimidoyl]sulfanylmethyl (E)-3-(4-methoxyphenyl)prop-2-enoate]
[1]
  mortality at 500 ppm: ≥ 75%
[2]
  mortality at 800 ppm: ≥ 75%
[7]
  mortality at 300 ppm: ≥ 75%
[3]
  mortality at 800 ppm: ≥ 75%
[4]
  mortality at 500 ppm: ≥ 75%
[5]
  mortality at 300 ppm: ≥ 75%

## Cc1ccc(C(C)C)c(N/C(=N/N=C/c2ccc(-n3cc(NC(=O)c4ccc(OC(F)(F)F)cc4)c(C)n3)cc2C)SCOC(=O)C2CCCCC2)c1 [Compound C-21, [(Z)—N-(2-isopropyl-5-methyl-phenyl)-N′-[(E)-[2-methyl-4-[3-methyl-4-[[4-(trifluoromethoxy)benzoyl]amino]pyrazol-1-yl]phenyl]methyleneamino]carbamimidoyl]sulfanylmethyl cyclohexanecarboxylate]
[1]
  mortality at 500 ppm: ≥ 75%
[2]
  mortality at 800 ppm: ≥ 75%
[7]
  mortality at 300 ppm: ≥ 75%
[3]
  mortality at 800 ppm: ≥ 75%
[4]
  mortality at 500 ppm: ≥ 75%
[5]
  mortality at 300 ppm: ≥ 75%
